Test system: sulfur producing enzymes
Experiment: H2S production (colour of sample) by sterile, enzyme-containing SRB supernatant after treatment with inhibitors
Format: biochemical, sulfate-reducing bacteria (SRBs) from produced water sources
Conditions: sterile enzyme-containing supernatant in LB, 3 months at 37° C.
Experimental: Now turning to the Figures, FIG. 1 illustrates the ability of sterile solutions to produce hydrogen sulfide (H2S). Six samples were formed with the following procedure. Each sample includes 100 mL of lysogeny broth (LB) ([…] Tryptone, 5 mg/ml yeast extract, 5 mg/mL NaCl, pH 7.5). Sample A is the blank sample, i.e. no sulfur metabolizing enzymes were added. Samples B-D include 0.5 mL of cultured sulfate-reducing bacteria (SRBs) from produced water sources. […]
Sample E includes 0.5 mL of supernatant after the same cultured SRBs were additionally sonicated. A QSonic sonicator sonicated the cultured SRBs for one minute cycles at 70% amplitude. The cell debris was removed via centrifugation at 3000 RPM for 25 minutes. 0.5 mL of the remaining supernatant was added to Sample E.
The remaining supernatant was filtered through a […] pore size PVDF membrane. […]
Samples 1-9 included the same components as that of Sample F from Example 1, i.e. 0.5 mL of the sterile, enzyme-containing, supernatant. […] Samples 1-9 were incubated at 37° C. and monitored periodically. […]

SMILES	inactivation of sulfur producing enzymes
NC(=O)CI [Iodoacetamide, iodoacetamide]	effective in permanently inactivating enzymes
CCCCCCCCCCCCOS(=O)(=O)[O-].[Na+] [SDS, sodium dodecyl sulfate]	effective in permanently inactivating enzymes
